Measurements published in patent publication US20160002248A1, “GLS1 INHIBITORS FOR TREATING DISEASE” (Board of Regents, The University of Texas System, priority 2014, published 2016).

Columns and labels:
A549 cells = assay: Proliferation Assay (A549 cell viability, Cell Titer Fluor); format: cell-based; conditions: Homo sapiens, 72 hours
Summary of the method: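 Seed A549 at 1000 cells/well and culture 24 h. Add compound (final DMSO 0.5%) and incubate 72 h at 37 °C. Add Cell Titer Fluor, mix 15 min, incubate 30 min, read fluorescence and fit EC50 by four-parameter logistic.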

[1] = target: T1, purified recombinant human GAC (GLS1) (Homo sapiens, UniProt O94925); assay: GLS1 Enzymatic Activity Assay (dual-coupled enzymatic assay); format: biochemical
T1 sequence (O94925 55-598 isoform O94925-3 limits assumed): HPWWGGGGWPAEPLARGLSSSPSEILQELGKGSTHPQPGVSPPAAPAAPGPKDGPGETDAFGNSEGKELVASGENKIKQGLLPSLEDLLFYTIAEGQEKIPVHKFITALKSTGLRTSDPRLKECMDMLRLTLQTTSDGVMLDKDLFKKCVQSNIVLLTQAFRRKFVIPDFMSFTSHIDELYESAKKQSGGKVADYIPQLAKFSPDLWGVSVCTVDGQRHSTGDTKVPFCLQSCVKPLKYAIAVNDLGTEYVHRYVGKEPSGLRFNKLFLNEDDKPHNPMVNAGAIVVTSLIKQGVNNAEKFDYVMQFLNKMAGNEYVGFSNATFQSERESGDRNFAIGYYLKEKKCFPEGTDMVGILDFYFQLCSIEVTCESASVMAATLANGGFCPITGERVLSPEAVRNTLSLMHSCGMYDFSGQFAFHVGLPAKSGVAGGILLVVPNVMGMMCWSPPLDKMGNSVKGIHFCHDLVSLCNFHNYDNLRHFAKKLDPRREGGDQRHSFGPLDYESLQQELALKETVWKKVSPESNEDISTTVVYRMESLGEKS
Summary of the method: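 In this coupled fluorometric format, phosphate-activated GAC (2 nM, 50 mM phosphate) is pre-exposed to compound for 10 min before 1 mM glutamine addition. Product is tracked as resorufin (530/590 nm) over time or at 20 min, and potency is derived by logistic fitting.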

| SMILES | EC50 (A549 cells) [µM] | IC50 [1] [µM] |
| --- | --- | --- |
| Cn1cnc(CNC(=O)c2cn(CCCCc3cc4cc(C5CC5)[nH]c4nn3)nn2)c1 [Example 45, 1-(4-{6-cyclopropyl-7H-pyrrolo[2,3-c]pyridazin-3-yl}butyl)-N-[(1-methyl-1H-imidazol-4-yl)methyl]-1H-1,2,3-triazole-4-carboxamide] | 0.5 to 5 | 0.1 to 0.5 |
| N#Cc1cccc(Cc2c(C3CC3)[nH]c3nnc(CCCCn4cc(C(=O)NCc5ccccn5)nn4)cc23)c1 [Example 103, 1-(4-{5-[(3-cyanophenyl)methyl]-6-cyclopropyl-7H-pyrrolo[2,3-c]pyridazin-3-yl}butyl)-N-(pyridin-2-ylmethyl)-1H-1,2,3-triazole-4-carboxamide] | 0.5 to 5 | < 0.1 |
| O=C(NCc1cc(OC(F)(F)F)ccc1F)c1cn(CCCCc2cc3cc(C4CN(C(=O)C5CCC5)C4)[nH]c3nn2)nn1 [Example 223, 1-{4-[6-(1-cyclobutanecarbonylazetidin-3-yl)-7H-pyrrolo[2,3-c]pyridazin-3-yl]butyl}-N-{[2-fluoro-5-(trifluoromethoxy)phenyl]methyl}-1H-1,2,3-triazole-4-carboxamide] | < 0.1 | < 0.1 |
| O=C(NC1COC1)c1nnc(CCCCc2cc3cc(Cc4ccccc4)[nH]c3nn2)s1 [Example 72, 5-(4-{6-benzyl-7H-pyrrolo[2,3-c]pyridazin-3-yl}butyl)-N-(oxetan-3-yl)-1,3,4-thiadiazole-2-carboxamide] | > 5 | 0.1 to 0.5 |
| COc1cncc(CNC(=O)c2cn(CCCCc3cc4cc(C5CC5)[nH]c4nn3)nn2)c1 [Example 48, 1-(4-{6-cyclopropyl-7H-pyrrolo[2,3-c]pyridazin-3-yl}butyl)-N-[(5-methoxypyridin-3-yl)methyl]-1H-1,2,3-triazole-4-carboxamide] | 0.5 to 5 | < 0.1 |
| Cc1ccc(CNC(=O)c2cn(CCCCc3cc4c(CCc5ccccc5)c(C5CC5)[nH]c4nn3)nn2)cn1 [Example 100, 1-{4-[6-cyclopropyl-5-(2-phenylethyl)-7H-pyrrolo[2,3-c]pyridazin-3-yl]butyl}-N-[(6-methylpyridin-3-yl)methyl]-1H-1,2,3-triazole-4-carboxamide] | 0.1 to 0.5 | < 0.1 |
| CC(C)(O)c1ccc(CNC(=O)c2cn(CCCCc3cc4c(C5CC5)c(C5CC5)[nH]c4nn3)nn2)cn1 [Example 213, 1-(4-{5,6-dicyclopropyl-7H-pyrrolo[2,3-c]pyridazin-3-yl}butyl)-N-{[6-(2-hydroxypropan-2-yl)pyridin-3-yl]methyl}-1H-1,2,3-triazole-4-carboxamide] | 0.1 to 0.5 | < 0.1 |
| CC(C)(C)OC(=O)N1CC(c2cc3cc(CCCCn4cc(C(=O)NCc5cccc(OC(F)(F)F)c5)nn4)nnc3[nH]2)C1 [Example 105, tert-butyl 3-(3-{4-[4-({[3-(trifluoromethoxy)phenyl]methyl}carbamoyl)-1H-1,2,3-triazol-1-yl]butyl}-7H-pyrrolo[2,3-c]pyridazin-6-yl)azetidine-1-carboxylate] | < 0.1 | < 0.1 |
| COc1ccccc1-c1cc2cc(CCCCn3cc(C(=O)NCc4ccc(C)nc4)nn3)nnc2[nH]1 [Example 228, 1-{4-[6-(2-methoxyphenyl)-7H-pyrrolo[2,3-c]pyridazin-3-yl]butyl}-N-[(6-methylpyridin-3-yl)methyl]-1H-1,2,3-triazole-4-carboxamide] | < 0.1 | < 0.1 |
| CCOC(=O)c1nnc(CCCCc2cc3cc(C4CC4)[nH]c3nn2)s1 [Example 115, ethyl 5-(4-{6-cyclopropyl-7H-pyrrolo[2,3-c]pyridazin-3-yl}butyl)-1,3,4-thiadiazole-2-carboxylate] | 0.5 to 5 | 0.1 to 0.5 |
| O=C(NCc1ccccn1)c1cn(CCCCc2cc3c(Cc4ccccc4F)c(C4CC4)[nH]c3nn2)nn1 [Example 104, 1-(4-{6-cyclopropyl-5-[(2-fluorophenyl)methyl]-7H-pyrrolo[2,3-c]pyridazin-3-yl}butyl)-N-(pyridin-2-ylmethyl)-1H-1,2,3-triazole-4-carboxamide] | 0.5 to 5 | < 0.1 |
| Cc1ccc(CNC(=O)c2cn(CCCCc3cc4c(-c5ccc(C(F)(F)F)cc5)c(C5CC5)[nH]c4nn3)nn2)cn1 [Example 163, 1-(4-{6-cyclopropyl-5-[4-(trifluoromethyl)phenyl]-7H-pyrrolo[2,3-c]pyridazin-3-yl}butyl)-N-[(6-methylpyridin-3-yl)methyl]-1H-1,2,3-triazole-4-carboxamide] | 0.1 to 0.5 | < 0.1 |
| O=C(NCc1ccccn1)c1cn(CCCCc2cc3c(-c4ccc(F)cc4F)c(C4CC4)[nH]c3nn2)nn1 [Example 151] | 0.1 to 0.5 | < 0.1 |
| Cc1cc(CNC(=O)c2cn(CCCCc3cc4cc(C5CC5)[nH]c4nn3)nn2)nn1C [Example 50, 1-(4-{6-cyclopropyl-7H-pyrrolo[2,3-c]pyridazin-3-yl}butyl)-N-[(1,5-dimethyl-1H-pyrazol-3-yl)methyl]-1H-1,2,3-triazole-4-carboxamide] | 0.5 to 5 | 0.1 to 0.5 |
| O=C(NCc1cncc(C(F)(F)F)c1)c1cn(CCCCc2cc3c(C4CC4)c(C4CC4)[nH]c3nn2)nn1 [Example 212, 1-(4-{5,6-dicyclopropyl-7H-pyrrolo[2,3-c]pyridazin-3-yl}butyl)-N-{[5-(trifluoromethyl)pyridin-3-yl]methyl}-1H-1,2,3-triazole-4-carboxamide] | 0.1 to 0.5 | < 0.1 |
| Cn1ccc(CNC(=O)c2cn(CCCCc3cc4cc(C5CC5)[nH]c4nn3)nn2)n1 [Example 52, 1-(4-{6-cyclopropyl-7H-pyrrolo[2,3-c]pyridazin-3-yl}butyl)-N-[(1-methyl-1H-pyrazol-3-yl)methyl]-1H-1,2,3-triazole-4-carboxamide] | 0.5 to 5 | 0.1 to 0.5 |
| Cc1ccc(CNC(=O)c2cn(CCCCc3cc4c(Br)c(C5CC5)[nH]c4nn3)nn2)cn1 [Example 18, 1-(4-(5-Bromo-6-cyclopropyl-7H-pyrrolo[2,3-c]pyridazin-3-yl)butyl)-N-((6-methylpyridin-3-yl)methyl)-1H-1,2,3-triazole-4-carboxamide 2,2,2-trifluoroacetate] | 0.1 to 0.5 | < 0.1 |
| Cc1ccc(CNC(=O)c2cn(CCCCc3cc4cc(-c5ccc(F)cc5F)[nH]c4nn3)nn2)cn1 [Example 183, 1-{4-[6-(2,4-difluorophenyl)-7H-pyrrolo[2,3-c]pyridazin-3-yl]butyl}-N-[(6-methylpyridin-3-yl)methyl]-1H-1,2,3-triazole-4-carboxamide] | 0.1 to 0.5 | < 0.1 |
| CC(C)(O)c1ccnc(CNC(=O)c2cn(CCCCc3cc4cc(-c5ccccc5F)[nH]c4nn3)nn2)c1 [Example 239, 1-{4-[6-(2-fluorophenyl)-7H-pyrrolo[2,3-c]pyridazin-3-yl]butyl}-N-{[4-(2-hydroxypropan-2-yl)pyridin-2-yl]methyl}-1H-1,2,3-triazole-4-carboxamide] | 0.1 to 0.5 | < 0.1 |
| O=C(NCc1cc(OC(F)(F)F)ccc1F)c1cn(CCCCc2cc3cc(C4CN(C(=O)OCC(F)(F)F)C4)[nH]c3nn2)nn1 [Example 148, 2,2,2-trifluoroethyl 3-(3-{4-[4-({[2-fluoro-5-(trifluoromethoxy)phenyl]methyl}carbamoyl)-1H-1,2,3-triazol-1-yl]butyl}-7H-pyrrolo[2,3-c]pyridazin-6-yl)azetidine-1-carboxylate] | < 0.1 | < 0.1 |
| O=C(NCc1cc(C(F)(F)F)ccn1)c1cn(CCCCc2cc3c(-c4ccoc4)c(C4CC4)[nH]c3nn2)nn1 [Example 184, 1-{4-[6-cyclopropyl-5-(furan-3-yl)-7H-pyrrolo[2,3-c]pyridazin-3-yl]butyl}-N-{[4-(trifluoromethyl)pyridin-2-yl]methyl}-1H-1,2,3-triazole-4-carboxamide] | < 0.1 | < 0.1 |
| CC(C)Cc1cc2cc(CCCCn3cc(C(=O)NCc4ccccn4)nn3)nnc2[nH]1 [Example 28, 1-{4-[6-(2-methylpropyl)-7H-pyrrolo[2,3-c]pyridazin-3-yl]butyl}-N-(pyridin-2-ylmethyl)-1H-1,2,3-triazole-4-carboxamide] | 0.1 to 0.5 | 0.5 to 5 |
| O=C(NCc1ccc(CF)nc1)c1cn(CCCCc2cc3c(C4CC4)c(C4CC4)[nH]c3nn2)nn1 [Example 214, 1-(4-{5,6-dicyclopropyl-7H-pyrrolo[2,3-c]pyridazin-3-yl}butyl)-N-{[6-(fluoromethyl)pyridin-3-yl]methyl}-1H-1,2,3-triazole-4-carboxamide] | 0.1 to 0.5 | < 0.1 |
| O=C(NCC1COC1)c1nnc(CCCCc2cc3cc(Cc4ccccc4)[nH]c3nn2)s1 [Example 69, 5-(4-{6-benzyl-7H-pyrrolo[2,3-c]pyridazin-3-yl}butyl)-N-(oxetan-3-ylmethyl)-1,3,4-thiadiazole-2-carboxamide] | 0.5 to 5 | 0.1 to 0.5 |
